Laboratory results published in ChEMBL document CHEMBL1201862, “PubChem BioAssay data set” (2004).
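Each compound was tested at five concentrations against cells in 96-well plates for 48 hours. Abbreviation: GI50, concentration required for 50% inhibition of growth.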 Active and inactive are the calls of the source. Rule as the data show it: active = GI50 up to about 1.1 µM and inactive = higher.

Assays:
Test in all cases: DTP human tumour cell line panel, 48 h
OVCAR-3 = test system: OVCAR-3
HCC 2998 = test system: HCC 2998
OVCAR-4 = test system: OVCAR-4
COLO 205 = test system: COLO 205
SK-MEL-5 = test system: SK-MEL-5
K562 = test system: K562
HOP-62 = test system: HOP-62
RPMI-8226 = test system: RPMI-8226
UO-31 = test system: UO-31
SNB-75 = test system: SNB-75
IGROV-1 = test system: IGROV-1
NCI-H460 = test system: NCI-H460
UACC-257 = test system: UACC-257
HCT-116 = test system: HCT-116
TK-10 = test system: TK-10
SF-539 = test system: SF-539
NCI-H23 = test system: NCI-H23
OVCAR-5 = test system: OVCAR-5

Measured: GI50

C[C@]12CCC(=O)CC1CCCC2=O (some centres undefined)
inactive: OVCAR-3 > 100 µM | HCC 2998 > 100 µM | OVCAR-4 > 100 µM | COLO 205 > 100 µM | SK-MEL-5 > 100 µM | K562 > 100 µM | HOP-62 > 100 µM | RPMI-8226 > 100 µM | UO-31 > 100 µM | SNB-75 > 100 µM | IGROV-1 > 100 µM | NCI-H460 > 100 µM | UACC-257 > 100 µM | HCT-116 > 100 µM | TK-10 > 100 µM | SF-539 > 100 µM | NCI-H23 > 100 µM

O=c1cccccc1NCCCCCCNc1cccccc1=O
inactive: OVCAR-3 > 100 µM | HCC 2998 > 100 µM | OVCAR-5 > 100 µM | OVCAR-4 > 100 µM | COLO 205 > 100 µM | SK-MEL-5 > 100 µM | K562 > 100 µM | HOP-62 > 100 µM | RPMI-8226 > 100 µM | UO-31 > 100 µM | SNB-75 57.7 µM | IGROV-1 > 100 µM | NCI-H460 > 100 µM | UACC-257 > 100 µM | HCT-116 > 100 µM | TK-10 > 100 µM | NCI-H23 > 100 µM

CCOC(=O)C1=C(NC)OCC1=O
inactive: OVCAR-3 > 100 µM | HCC 2998 > 100 µM | OVCAR-5 > 100 µM | OVCAR-4 > 100 µM | COLO 205 > 100 µM | SK-MEL-5 > 100 µM | K562 > 100 µM | HOP-62 > 100 µM | RPMI-8226 > 100 µM | UO-31 > 100 µM | SNB-75 > 100 µM | IGROV-1 > 100 µM | NCI-H460 > 100 µM | UACC-257 > 100 µM | HCT-116 > 100 µM | TK-10 > 100 µM | SF-539 > 100 µM | NCI-H23 > 100 µM

COc1ccc(C=O)c(NC(=O)C(C)C)c1
inactive: OVCAR-3 30.5 µM | OVCAR-5 > 100 µM | OVCAR-4 27 µM | COLO 205 18.2 µM | SK-MEL-5 > 10 µM | K562 31 µM | RPMI-8226 20.5 µM | UO-31 33.3 µM | SNB-75 30.6 µM | IGROV-1 > 100 µM | NCI-H460 > 100 µM | UACC-257 27.2 µM | HCT-116 15.8 µM | TK-10 85.7 µM | SF-539 40.4 µM | NCI-H23 26 µM

O=c1cc2ccccc2nn1Cc1ccccc1Cl
inactive: OVCAR-3 94.6 µM | HCC 2998 > 100 µM | OVCAR-5 > 100 µM | OVCAR-4 > 100 µM | COLO 205 > 100 µM | SK-MEL-5 > 100 µM | K562 85.3 µM | HOP-62 > 100 µM | RPMI-8226 92.5 µM | UO-31 29.5 µM | SNB-75 25.3 µM | IGROV-1 > 100 µM | NCI-H460 > 100 µM | UACC-257 > 100 µM | HCT-116 > 100 µM | TK-10 > 100 µM | SF-539 > 100 µM | NCI-H23 88.9 µM

CC(C)OC(=O)c1cc(NC(=O)C(C)(C)C)c(F)cc1Cl
inactive: OVCAR-3 > 100 µM | HCC 2998 > 100 µM | OVCAR-5 > 100 µM | OVCAR-4 > 100 µM | COLO 205 > 100 µM | SK-MEL-5 > 100 µM | K562 > 100 µM | HOP-62 > 100 µM | RPMI-8226 > 100 µM | UO-31 > 100 µM | SNB-75 > 100 µM | IGROV-1 > 100 µM | NCI-H460 > 100 µM | UACC-257 > 100 µM | HCT-116 > 100 µM | TK-10 > 100 µM | SF-539 > 100 µM | NCI-H23 > 100 µM
